Experimental findings from article PMC8653295 (Chemistry (Weinheim an Der Bergstrasse, Germany), 2021) are described below.

Several values for one entry are separate records, joined by “and”; a condition that tells them apart may be missing. Equal entries are not always repeated. Entries after “also recorded” stand apart in the source; their conditions may differ.

The target in series [1] is SARS‐CoV PL^pro (Severe acute respiratory syndrome coronavirus, UniProt P0C6X7). Kind of series: biochemical. The class given is biochemical. To be noted: for inhibition of SARS-CoV PLpro: 10 µM.
Series [2] deals with interaction of the RBD of the SARS‐CoV‐2 S protein with the ACE2 receptor (Severe acute respiratory syndrome coronavirus 2, UniProt P0DTC2). The class given is binding. As to conditions: for inhibition of the S/ACE2 interaction: 20 µM.
Series [3] concerns CaLu‐3 cells.
Series [4] concerns SARS‐CoV‐2. It is filed as cell-based.
For series [5], the system named is Caco‐2 cells.
For series [6], the target named is SARS‐CoV‐2 PL^pro (Severe acute respiratory syndrome coronavirus 2, UniProt P0DTD1). Put plainly: biochemical. It is filed as biochemical. To be noted: for inhibition of SARS-CoV-2 PLpro: 1 µM.

For the compound `O=C(O)CC([S-])C(=O)O.[Au+]` (stereo not shown) [Au‐2, aurothiomalate, reference compound], in series [1], the IC50 is 690 ± 200 nM; the “IC50 SARS‐CoV PL^pro” value is given as “Submicromolar”; the “inhibition of SARS-CoV PLpro” value was 91% and > 50%. Besides, in series [2], the “inhibition of the S/ACE2 interaction” value is reported as 18%. Besides, the “concentration up to which no significant cytotoxic effects / tolerated well” value in series [3] is not below 500 µM. Moreover, the “antiviral effect against SARS‐CoV‐2 replication (in words)” value (from here on “antiviral effect … (in words)”) in series [4] is reported as “not active”. The “concentration up to which no significant cytotoxic effects / tolerated well” value in series [5] is not below 500 µM. In addition, in series [6], the IC50 was 600 ± 250 nM; the “IC50 SARS‐CoV‐2 PL^pro” value is “Submicromolar”; the “inhibition of SARS-CoV-2 PLpro” value is 64% and > 50%.
Turning to `CCn1[c]([Au-][Cl])[n+](CC)c2cc(C(=O)OC)ccc21` [Au‐12], the IC50 in series [1] was determined as 330 ± 110 nM; in series [6] it was 1100 ± 60 nM. Moreover, in series [2], the “inhibition of the S/ACE2 interaction” value came to 19%. In series [4], the “antiviral effect … (in words)” value is “at 6.25 and 25 μM concentrations efficiently inhibited; also recorded: antiviral activity starting at low micromolar concentrations”.
Turning to `CO[C@H]1O[C@H](CNC(=O)C2CCN(C(=S)[S-])CC2)[C@@H](O)[C@H](O)[C@H]1O.[Au+3].[Br-].[Br-]` [Au‐33], the IC50 stood at 1040 ± 270 nM in series [1] and 210 ± 40 nM in series [6]. Also, the “inhibition of SARS-CoV PLpro” value in series [1] is listed as 78%. Also, the “inhibition of the S/ACE2 interaction” value in series [2] is reported as 10%. For the same compound, the “concentration up to which no significant cytotoxic effects / tolerated well” value in series [3] and in series [5] was not below 500 µM each time. In addition, the “antiviral effect … (in words)” value in series [4] was “inactive at low dosages; also recorded: completely blocked SARS‐CoV‐2 at 500 μM; also recorded: strongly blocked viral replication at a high dosage of 500 μM”. Besides, the “inhibition of SARS-CoV-2 PLpro” value in series [6] is 99%.
As for `CO[C@H]1O[C@H](CO)[C@@H](O)[C@H](O)[C@H]1NC(=O)C1CCN(C(=S)[S-])CC1.[Au+3].[Br-].[Br-]` [Au‐34], the IC50 worked out at 1150 ± 340 nM in series [1] and 90 ± 40 nM in series [6]. For the same compound, the “inhibition of SARS-CoV PLpro” value in series [1] was found to be 86%. Besides, the “inhibition of the S/ACE2 interaction” value in series [2] came out at 15%. The “concentration up to which no significant cytotoxic effects / tolerated well” value in series [3] and in series [5] was not below 500 µM throughout. Also, in series [4], the “antiviral effect … (in words)” value was “inactive at low dosages; also recorded: completely blocked SARS‐CoV‐2 at 500 μM; also recorded: strongly blocked viral replication at a high dosage of 500 μM”. The “inhibition of SARS-CoV-2 PLpro” value in series [6] is 98%.
Consider `CCC(CC)COC(=O)[C@H](C)N[P@](=O)(OC[C@H]1O[C@@](C#N)(c2ccc3c(N)ncnn23)[C@H](O)[C@@H]1O)Oc1ccccc1` [Remdesivir, remdesivir, reference compound], for which the “antiviral effect … (in words)” value in series [4] is “efficiently inhibited viral replication at low micromolar concentrations”.
Consider `[Cl-].[Cl-].[Ti+4].c1cc[cH-]c1.c1cc[cH-]c1` [Ti‐1, titanocene dichloride, reference compound], for which, in series [1], the “activity against SARS‐CoV PL^pro (in words)” value is “inactive” and the “inhibition of SARS-CoV PLpro” value worked out at 6%. Moreover, the “inhibition of the S/ACE2 interaction” value in series [2] worked out at 69%. For the same compound, the IC50 in series [2] (read-out: IC50 as inhibitors of the S/ACE2 interaction) turned out to be 3900 ± 300 nM. In series [3], the “concentration up to which no significant cytotoxic effects / tolerated well” value is not below 500 µM. Moreover, in series [4], the “antiviral effect … (in words)” value was “active at 125 and 500 μM; also recorded: strongly blocked viral replication at a high dosage of 500 μM”; the “concentration at which antiviral effects were shown” value is given as “higher than 100 μM”. Further, in series [5], the “concentration up to which no significant cytotoxic effects / tolerated well” value is not below 500 µM. For the same compound, in series [6], the “activity against SARS‐CoV‐2 PL^pro (in words)” value was “inactive” and the “inhibition of SARS-CoV-2 PLpro” value is reported as -13%.
As to “((NH2)3C)4[(BrC6H4As)2Mo6O24] ⋅ 2H2O [POM‐9]”, the “inhibition of SARS-CoV PLpro” value in series [1] was 13%. Further, the “inhibition of the S/ACE2 interaction” value in series [2] is on record as 7%. Further, the “inhibition of SARS-CoV-2 PLpro” value in series [6] came to 7%.
Consider ((NH2)3C)4[(N3C6H4As)2Mo6O24] [POM‐10], for which the “inhibition of SARS-CoV PLpro” value in series [1] was determined as 7%. In addition, in series [2], the “inhibition of the S/ACE2 interaction” value came to 6%. Also, in series [6], the “inhibition of SARS-CoV-2 PLpro” value was found to be 4%.
The corresponding values for “Cs3K[(HO2CC6H4CH2P)2Mo5O21] ⋅ 5H2O [POM‐8]” are 5%, 9% and 7%.
Consider K6H2[CoW11TiO40] ⋅ 12H2O [POM‐4], for which, in series [1], the “activity against SARS‐CoV PL^pro (in words)” value was “active only against the enzyme from SARS‐CoV” and the “inhibition of SARS-CoV PLpro” value is on record as 44%. Besides, in series [2], the “inhibition of the S/ACE2 interaction” value is listed as 82%. Besides, the “inhibition of SARS-CoV-2 PLpro” value in series [6] is listed as 7%.
Regarding K7[Ti2PW10O40] ⋅ 6H2O [POM‐3], in series [1], the “inhibition of SARS-CoV PLpro” value turned out to be 63%. Also, the “inhibition of the S/ACE2 interaction” value in series [2] came out at 68%. Further, the “inhibition of SARS-CoV-2 PLpro” value in series [6] is 15%.
For the compound Na6[TeW6O24] ⋅ 22H2O [POM‐5], the “inhibition of SARS-CoV PLpro” value in series [1] amounted to 49%. Moreover, the “concentration up to which no significant cytotoxic effects / tolerated well” value in series [3] and in series [5] was not below 200 µM in each case. In series [6], the “inhibition of SARS-CoV-2 PLpro” value came out at 69%.
As to Na12[PbO8Pd12 (PO4)8] ⋅ 38H2O [POM‐1], the “inhibition of SARS-CoV PLpro” value in series [1] came out at 100%. Besides, the “inhibition of the S/ACE2 interaction” value in series [2] is recorded as 52%. Also, the “concentration up to which no significant cytotoxic effects / tolerated well” value in series [3] and in series [5] was not below 200 µM in each case. In addition, the “inhibition of SARS-CoV-2 PLpro” value in series [6] is reported as 68%.
With Na12[SnO8Pd12(PO4)8] ⋅ 43H2O [POM‐2], the “inhibition of SARS-CoV PLpro” value in series [1] is listed as 100%. Also, the “inhibition of the S/ACE2 interaction” value in series [2] was 50%. The “concentration up to which no significant cytotoxic effects / tolerated well” value in series [3] and in series [5] was not below 200 µM throughout. Besides, the “inhibition of SARS-CoV-2 PLpro” value in series [6] is reported as 66%.
Regarding “Rb5.5Na4.5[{(p‐tolyl)Sb}4(PW9O34)2] ⋅ 40H2O [POM‐6]”, the “inhibition of SARS-CoV PLpro” value in series [1] was 80%. In addition, in series [2], the “inhibition of the S/ACE2 interaction” value came out at 91%. The “cytotoxicity (in words)” value in series [3] and in series [5] was “strongly toxic” throughout. In addition, the “inhibition of SARS-CoV-2 PLpro” value in series [6] was 58%.
Regarding “Rb6Na6[{(p‐tolyl)Sb}4(GeW9 O34)2] ⋅ 40H2O [POM‐7]”, the “inhibition of SARS-CoV PLpro” value in series [1] is recorded as 92%. The “inhibition of the S/ACE2 interaction” value in series [2] amounted to 98%. The “cytotoxicity (in words)” value in series [3] and in series [5] was “strongly toxic” throughout. Moreover, in series [6], the “inhibition of SARS-CoV-2 PLpro” value is given as 67%.
In the case of “[Pd16Na2O26 (OH)3Cl3((CH3)2As)8] ⋅ 0.25Na(CH3)2AsO2 ⋅ 17H2O [POM‐11]”, the “inhibition of SARS-CoV PLpro” value in series [1] is 100%. Besides, the “inhibition of the S/ACE2 interaction” value in series [2] is given as 75%. Further, the “concentration up to which no significant cytotoxic effects / tolerated well” value in series [3] is not below 200 µM. In addition, in series [4], the “antiviral effect … (in words)” value is on record as “antiviral activity starting at low micromolar concentrations” and the “concentration at which antiviral effects were shown” value is 50 µM. The “concentration up to which no significant cytotoxic effects / tolerated well” value in series [5] was not below 200 µM. The “inhibition of SARS-CoV-2 PLpro” value in series [6] came out at 85%.
